Results reported in ChEMBL document CHEMBL3272053, “(exo, exo)-2-Aryltropane-3-carboxylic esters, hypoglycemic agents with accompanying analgesic activity” (J Med Chem, 1978).
Active and inactive are the calls of the source. No cut-off for these calls is given here.

Tests used:
Rattus norvegicus [1] = assay: Hypoglycemic activity in fasted Sprague-Dawley rat assessed as reduction of blood glucose level at 78 mg/kg, iv relative to control; format: functional, organism-based; design: dose 78 mg/kg
Rattus norvegicus [2] = assay: Hypoglycemic activity in fasted Sprague-Dawley rat assessed as reduction of blood glucose level at 78 mg/kg, po relative to control; format: functional; design: scale not given: the % may be the effect or the level left
Mus musculus [3] = assay: Toxicity in Swiss-Webster mouse assessed as stimulation of straub tail at 2.5 mg/kg, sc after 15 to 25 mins; format: organism-based; design: dose 2.5 mg/kg, route subcutaneous; conditions: in vivo
Rattus norvegicus [4] = assay: Narcotic analgesic activity in fasted Sprague-Dawley rat at 120 mg/kg, po measured at 15 mins by D'Amour-Smith tail-flick test relative to control; format: functional
Mus musculus [5] = assay: Analgesic activity in sc dosed Swiss-Webster mouse assessed as reduction of acetylcholine-induced writhing; format: functional; conditions: Mus musculus, Swiss-Webster, sc; for ED50: read-out: ED50
Rattus norvegicus [6] = assay: Hypoglycemic activity in glucose loaded Sprague-Dawley rat assessed as reduction of blood glucose level at 88 mg/kg, po relative to control; format: functional; design: scale not given: the % may be the effect or the level left
Rattus norvegicus [7] = assay: Toxicity in Sprague-Dawley rat assessed as stiff tail at 480 mg/kg, po; format: organism-based; design: dose 480 mg/kg, route oral; conditions: in vivo
Rattus norvegicus [8] = assay: Hypoglycemic activity in Sprague-Dawley rat assessed as reduction of blood glucose level at 100 mg/kg, po by glucagon-impaired glucose disposal test relative to control; format: functional; design: scale not given: the % may be the effect or the level left
Rattus norvegicus [9] = assay: Narcotic analgesic activity in fasted Sprague-Dawley rat at 240 mg/kg, po measured at 60 mins by D'Amour-Smith tail-flick test relative to control; format: functional
Rattus norvegicus [10] = assay: Toxicity in Sprague-Dawley rat assessed as jumpy behavior at 480 mg/kg, po; format: organism-based; design: dose 480 mg/kg, route oral; conditions: in vivo
Rattus norvegicus [11] = assay: Toxicity in rat assessed as slight rigidity at 480 mg/kg, po; format: organism-based; design: dose 480 mg/kg, route oral; conditions: in vivo
Mus musculus [12] = assay: Analgesic activity in Swiss-Webster mouse assessed as reduction of acetylcholine-induced writhing at 75 mg/kg, sc relative to control; format: functional; design: scale not given: the % may be the effect or the level left; conditions: route subcutaneous
Rattus norvegicus [13] = assay: Toxicity in Sprague-Dawley rat assessed as hyperexcitability at 240 mg/kg, po; format: organism-based; design: dose 240 mg/kg, route oral; conditions: in vivo
Rattus norvegicus [14] = assay: Hypoglycemic activity in Sprague-Dawley rat assessed as reduction of blood glucose level at 300 mg/kg, po by glucagon-impaired glucose disposal test relative to control; format: functional; design: scale not given: the % may be the effect or the level left
Rattus norvegicus [15] = assay: Narcotic analgesic activity in fasted Sprague-Dawley rat at 240 mg/kg, po measured at 15 mins by D'Amour-Smith tail-flick test relative to control; format: functional
Mus musculus [16] = assay: Analgesic activity in Swiss-Webster mouse assessed as reduction of acetylcholine-induced writhing at 50 mg/kg, po relative to control; format: functional; design: scale not given: the % may be the effect or the level left
Rattus norvegicus [17] = assay: Hypoglycemic activity in Sprague-Dawley rat assessed as reduction of blood glucose level at 88 mg/kg, po by glucagon-impaired glucose disposal test relative to control; format: functional
Rattus norvegicus [18] = assay: Hypoglycemic activity in glucose loaded Sprague-Dawley rat assessed as reduction of blood glucose level at 264 mg/kg, po relative to control; format: functional; design: scale not given: the % may be the effect or the level left
Mus musculus [19] = assay: Analgesic activity in Swiss-Webster mouse assessed as reduction of acetylcholine-induced writhing at 25 mg/kg, sc relative to control; format: functional; design: scale not given: the % may be the effect or the level left; conditions: route subcutaneous
Rattus norvegicus [20] = assay: Hypoglycemic activity in fasted Sprague-Dawley rat assessed as reduction of blood glucose level at 89 mg/kg, po relative to control; format: functional; design: scale not given: the % may be the effect or the level left
Rattus norvegicus [21] = assay: Toxicity in Sprague-Dawley rat assessed as convulsion at 240 mg/kg, po; format: organism-based; design: dose 240 mg/kg, route oral; conditions: in vivo
Rattus norvegicus [22] = assay: Hypoglycemic activity in glucose loaded Sprague-Dawley rat assessed as reduction of blood glucose level at 64 mg/kg, po relative to control; format: functional; design: scale not given: the % may be the effect or the level left
Rattus norvegicus [23] = assay: Toxicity in Sprague-Dawley rat assessed as very rigid structure at 240 mg/kg, po; format: organism-based; design: dose 240 mg/kg, route oral; conditions: in vivo
Mus musculus [24] = assay: Analgesic activity in po dosed Swiss-Webster mouse assessed as reduction of acetylcholine-induced writhing; format: functional
Rattus norvegicus [25] = assay: Hypoglycemic activity in glucose loaded Sprague-Dawley rat assessed as reduction of blood glucose level at 64 mg/kg, po in presence of microsomal enzyme inhibitor SKF 525-A; format: functional, organism-based; design: dose 64 mg/kg
Rattus norvegicus [26] = assay: Toxicity in Sprague-Dawley rat assessed as tremor at 240 mg/kg, sc; format: organism-based; design: dose 240 mg/kg, route subcutaneous; conditions: in vivo
Rattus norvegicus [27] = assay: Hypoglycemic activity in Sprague-Dawley rat assessed as reduction of blood glucose level at 88 mg/kg, po by glucagon-impaired glucose disposal test in presence of opioid antagonist nalorphine; format: functional, organism-based; design: dose 88 mg/kg
Rattus norvegicus [28] = assay: Hypoglycemic activity in Sprague-Dawley rat assessed as reduction of blood glucose level at 100 mg/kg, po; format: functional, organism-based; design: dose 100 mg/kg
Rattus norvegicus [29] = assay: Hypoglycemic activity in Sprague-Dawley rat assessed as reduction of blood glucose level at 88 mg/kg, po by glucagon-impaired glucose disposal test in presence of microsomal enzyme inhibitor SKF 525-A; format: functional, organism-based; design: dose 88 mg/kg
Rattus norvegicus [30] = species: Rattus norvegicus; assay: Narcotic analgesic activity in Sprague-Dawley rat at 15 mins by D'Amour-Smith tail-flick test in presence of microsomal enzyme inhibitor SKF 525-A; format: functional, organism-based
Rattus norvegicus [31] = assay: Narcotic analgesic activity in fed Sprague-Dawley rat at 240 mg/kg, sc measured at 30 mins by D'Amour-Smith tail-flick test; format: functional; conditions: route subcutaneous
Rattus norvegicus [32] = assay: Toxicity in Sprague-Dawley rat assessed as rigidity at 240 mg/kg, sc; format: organism-based; design: dose 240 mg/kg, route subcutaneous; conditions: in vivo
Rattus norvegicus [33] = assay: Narcotic analgesic activity in fasted Sprague-Dawley rat at 120 mg/kg,sc measured at 30 mins by D'Amour-Smith tail-flick test in presence of opioid antagonist nalorphine; format: functional, organism-based; design: dose 120 mg/kg
Rattus norvegicus [34] = assay: Narcotic analgesic activity in fasted Sprague-Dawley rat at 120 mg/kg, po measured at 60 mins by D'Amour-Smith tail-flick test relative to control; format: functional
Rattus norvegicus [35] = assay: Hypoglycemic activity in glucose loaded Sprague-Dawley rat assessed as reduction of blood glucose level at 100 mg/kg, po relative to control; format: functional; design: scale not given: the % may be the effect or the level left
Rattus norvegicus [36] = species: Rattus norvegicus; assay: Narcotic analgesic activity in Sprague-Dawley rat measured at 15 mins by D'Amour-Smith tail-flick test relative to control; format: functional
Rattus norvegicus [37] = assay: Narcotic analgesic activity in po dosed fasted Sprague-Dawley rat measured at 60 mins by D'Amour-Smith tail-flick test; format: functional
Rattus norvegicus [38] = assay: Toxicity in Sprague-Dawley rat assessed as tremor at >= 120 mg/kg, po; format: organism-based; design: dose 120 mg/kg, route oral; conditions: in vivo
Rattus norvegicus [39] = assay: Potency index, ratio of codeine ED50 to compound ED50 for analgesic activity in po dosed rat assessed as reduction of intraarterial bradykinin-induced pain response; format: functional
Rattus norvegicus [40] = assay: Analgesic activity in po dosed rat assessed as reduction of intraarterial bradykinin-induced pain response; format: functional
Rattus norvegicus [41] = assay: Toxicity in Sprague-Dawley rat assessed as rigidity at >=120 mg/kg, po; format: organism-based; conditions: in vivo
Rattus norvegicus [42] = assay: Narcotic analgesic activity in sc dosed fed Sprague-Dawley rat measured at 30 mins by D'Amour-Smith tail-flick test; format: functional; conditions: Rattus norvegicus, Sprague-Dawley, Tail, sc, 0.5 h; read-out: ED50
Rattus norvegicus [43] = assay: Toxicity in Sprague-Dawley rat assessed as mortality at >= 120 mg/kg, po; format: organism-based; design: dose 120 mg/kg, route oral; conditions: in vivo
Rattus norvegicus [44] = assay: Toxicity in Sprague-Dawley rat assessed as hyperexcitability at >= 120 mg/kg, po; format: organism-based; design: dose 120 mg/kg, route oral; conditions: in vivo
Rattus norvegicus [45] = assay: Narcotic antagonist activity in fed Sprague-Dawley rat assessed as decrease in phenazocine-induced analgesic activity at 80 mg/kg, sc; format: functional; design: scale not given: the % may be the effect or the level left; conditions: route subcutaneous
Rattus norvegicus [46] = assay: Toxicity in fasted Sprague-Dawley rat assessed as mortality at 240 mg/kg, po measured at 60 mins; format: organism-based; design: dose 240 mg/kg, route oral; conditions: in vivo, 1 h
Rattus norvegicus [47] = assay: Hypoglycemic activity in Sprague-Dawley rat assessed as reduction of blood glucose level at 87 mg/kg, po by glucagon-impaired glucose disposal test relative to control; format: functional; design: scale not given: the % may be the effect or the level left
Rattus norvegicus [48] = assay: Analgesic activity in rat assessed as protection against intraarterial bradykinin-induced pain response at 50 mg/kg, sc relative to control; format: functional; conditions: route subcutaneous
Rattus norvegicus [49] = assay: Toxicity in Sprague-Dawley rat assessed as convulsion at 240 mg/kg, sc; format: organism-based; design: dose 240 mg/kg, route subcutaneous; conditions: in vivo

Cl.O=C(O)[C@H]1C[C@H]2CC[C@@H](N2)[C@H]1c1cccs1
Activity (Rattus norvegicus [1]): inactive | Activity (Rattus norvegicus [2]): <20%

CCOC(=O)[C@H]1C[C@H]2CC[C@@H](N2)[C@H]1c1cccs1.Cl
Activity (Mus musculus [3]): Toxic | Activity (Rattus norvegicus [4]): 85% | ED50 (Mus musculus [5]): 2.8 mg/kg | Activity (Rattus norvegicus [6]): 66%

CCCCCCCN1[C@@H]2CC[C@@H]1[C@@H](c1cccs1)[C@@H](C(=O)OC)C2
Activity (Rattus norvegicus [7]): Toxic | Activity (Rattus norvegicus [8]): 40% | Activity (Rattus norvegicus [9]): 70% | Activity (Rattus norvegicus [10]): Toxic | Activity (Rattus norvegicus [11]): Toxic | Activity (Mus musculus [12]): 27%

COC(=O)[C@H]1C[C@H]2CC[C@H]([C@H]1c1ccsc1)N2C
Activity (Rattus norvegicus [13]): Toxic | ED40 (Mus musculus [5]): 12 mg/kg | Activity (Rattus norvegicus [9]): 40% | Activity (Rattus norvegicus [14]): 42%

COC(=O)CN1[C@@H]2CC[C@@H]1[C@@H](c1cccs1)[C@@H](C(=O)OC)C2.Cl
Activity (Rattus norvegicus [15]): 100% | Activity (Mus musculus [16]): 33% | Activity (Rattus norvegicus [17]): inactive | Activity (Rattus norvegicus [18]): 70%

COC(=O)[C@H]1C[C@H]2CC[C@H]([C@H]1c1cccs1)N2C(C)C.Cl
Activity (Rattus norvegicus [15]): 87% | Activity (Mus musculus [19]): 13% | Activity (Rattus norvegicus [20]): 40% | Activity (Rattus norvegicus [21]): Toxic

COC(=O)[C@H]1C[C@H]2CC[C@H]([C@H]1c1cccs1)N2CCC#N.Cc1ccc(S(=O)(=O)O)cc1
Activity (Rattus norvegicus [22]): 64% | Activity (Rattus norvegicus [15]): 100% | Activity (Rattus norvegicus [23]): Toxic | ED50 (Mus musculus [24]): 60 mg/kg | Activity (Rattus norvegicus [25]): Active

COC(=O)[C@@H]1C[C@@H]2CC[C@@H]([C@@H]1c1cccs1)N2C.Cl
Activity (Rattus norvegicus [26]): Toxic | Activity (Rattus norvegicus [27]): Active | Activity (Rattus norvegicus [28]): inactive | Activity (Rattus norvegicus [29]): inactive | Activity (Rattus norvegicus [30]): inactive | Activity (Rattus norvegicus [31]): 62% | Activity (Rattus norvegicus [32]): Toxic | Activity (Rattus norvegicus [33]): inactive | Activity (Rattus norvegicus [34]): 26% | Activity (Rattus norvegicus [17]): <20%

CCC(CC)CN1[C@@H]2CC[C@@H]1[C@@H](c1cccs1)[C@@H](C(=O)OC)C2
Activity (Rattus norvegicus [15]): 72% | Activity (Rattus norvegicus [35]): 69% | Activity (Rattus norvegicus [36]): 24% | Activity (Mus musculus [12]): 7%

COC(=O)[C@H]1C[C@H]2CC[C@H]([C@H]1c1cccs1)N2C.Cl
ED50 (Rattus norvegicus [37]): 59 mg/kg | Activity (Rattus norvegicus [38]): Toxic | Ratio ED50 (Rattus norvegicus [39]): >10 | ED50 (Rattus norvegicus [40]): 6.9 mg/kg | Activity (Rattus norvegicus [41]): Toxic | ED50 (Rattus norvegicus [42]): 60 mg/kg | Activity (Rattus norvegicus [17]; 88 mg/kg): 75% | Activity (Rattus norvegicus [43]): Toxic | Activity (Rattus norvegicus [44]): Toxic

COC(=O)[C@H]1C[C@H]2CC[C@H]([C@H]1c1ccccc1)N2C (stereo in doubt; (-)-5)
Activity (Rattus norvegicus [45]): 73% | Activity (Rattus norvegicus [46]): Toxic | ED50 (Mus musculus [5]): 18 mg/kg | Activity (Rattus norvegicus [21]): Toxic

CC(=O)[C@H]1C[C@H]2CC[C@H]([C@H]1c1cccs1)N2C.Cl
Activity (Rattus norvegicus [47]): 26% | Activity (Rattus norvegicus [26]): Toxic | Activity (Rattus norvegicus [31]): 55% | Activity (Rattus norvegicus [48]): 80% | ED50 (Mus musculus [5]): 12 mg/kg | Activity (Rattus norvegicus [49]): Toxic
